Assay results from article PMC4538536, “In Silico-Based High-Throughput Screen for Discovery of Novel Combinations for Tuberculosis Treatment” (Antimicrobial Agents and Chemotherapy, 2015).
≈ marks a conversion by molar mass, not a printed value. Like-named read-outs stand apart in the source and are kept apart here.

Experiments:
[1] = system: M. tuberculosis H37Rv; test: MIC determination, resazurin-based microplate assay; assay type: cell-based, Mycobacterium tuberculosis; settings: single drug
[2] = system: M. tuberculosis H37Rv; test: In vitro bactericidal-effect analysis (CFU enumeration of checkerboard wells); assay type: cell-based, Mycobacterium tuberculosis; settings: single drug at its MIC (FIC of 1); positive = reduction in CFU
Description: For determining the extent of the bactericidal effect, sample wells which remained blue in the resazurin microtiter assay (REMA) and whose ΣFICs were within the synergistic-to-additive range (<0.7 for doublets and <1.5 for triplets) were plated on Middlebrook 7H10 agar medium and incubated at 37°C for 21 to 28 days, following which bacterial colonies were enumerated to obtain the net reduction in CFU in comparison to the counts for the untreated controls at the start of drug testing, as well as to that achieved when M. tuberculosis was exposed to each drug alone.

[3] = In vivo pharmacokinetics in infected mice (plasma, LC-MS/MS); parameters: species or system BALB/c mice; settings: BALB/c, mouse, plasma, po, steady state, infected mice
Description: The drugs were formulated in 0.5% hydroxypropyl methyl cellulose (HPMC)–0.1% Tween 80 suspensions as 3- or 4-drug combinations. Formulations were prepared by weighing and adding each compound to the bottle, according to the design. Formulation vehicle was added, and the suspension was stirred overnight. Only uniform suspensions were used, while those that precipitated were abandoned. Formulations were prepared every week, and compound stability was estimated at the end of the week. Pharmacokinetics (PK) analysis was performed on infected mice on the 20th day of dosing. Blood samples were collected from each mouse at 0.5, 2, 4, 6, and 24 h after compound administration. Blood samples of about 30 μl were collected from mice in all groups by serial sampling via the saphenous vein into Microvette CB300 tubes (Starstedt, Germany) coated with EDTA, and plasma (10 μl) was separated following centrifugation. Plasma samples were stored at –20°C until analysis using liquid chromatography-tandem mass spectrometry (LC-MS/MS).
A 1-mg/ml stock solution of each compound was prepared in dimethyl sulfoxide (DMSO) for all of the analytes except PZA and LZD, for which the stock solution was 10 mg/ml in DMSO, and RIF, for which the stock solution was prepared in 50% acetonitrile in water. Three different sets of calibration standard (CS) combinations were prepared by 2-fold dilution of the stock solutions. CS set 1 contained analytes CLO, BDQ, PA824, PZA, and SQ109, CS set 2 contained analytes BTZ043, MXF, THI, EMB, and PZA, and CS set 3 contained LZD, INH, RIF, and PZA. A 16-point calibration curve was utilized for all analytes, and the standard curves ranged from 0.0005 to 20 μg/ml except for PZA and LZD, for which the standard curve range was 0.006 to 200 μg/ml. Plasma samples were precipitated by adding chilled acetonitrile (1:10, vol/vol) containing carbamazepine as an internal standard (10 ng/ml). Samples were vortexed and then centrifuged at 4,000 rpm for 30 min at 10°C. The resulting supernatant was mixed with the mobile phase (50% acetonitrile in water with 0.1% formic acid). Five microliters of the sample was injected on to a liquid chromatographic system (Acquity ultraperformance liquid chromatography [UPLC] system, Waters, Milford, MA) coupled to a triple-quadrupole mass spectrometer (Xevo TQ-S; Waters, Milford, MA). Samples were separated on an LC column (ACE 3 C18, 50 by 4.6 mm, 3 μm particle size; Advanced Chromatography Technologies, Aberdeen, Scotland) by isocratic elution with 40 parts of 20 mM ammonium formate containing 0.1% (vol/vol) formic acid and 60 parts of acetonitrile at a flow rate of 0.5 ml/min with a run time of 4 min. Samples were acquired in positive ion mode and detected by multiple reaction monitoring (MRM). The concentrations of the analyte were determined from a standard curve obtained by plotting known concentrations of the analyte against peak area ratios (analyte/internal standard peak response).
PK analyses of the plasma concentration-time relationships were performed with Phoenix software (version 6.2; Pharsight, USA). A noncompartmental analysis program, model 200, was used to calculate PK parameters. The maximum concentration of drug in plasma (Cmax), time to Cmax (Tmax), elimination half-life (t1/2), and area under the concentration-time curve (AUC) from time zero to infinity (AUC0–∞) were estimated. AUC was computed using the trapezoidal rule (linear up and log down), and the AUC0–∞ was considered only when the extrapolated AUC was not more than 20% of the original value. A minimum of three sample points in the terminal slope were used to calculate half-life.

[4] = 150 mg/kg, Group 1 quartet CFZ 20/BDQ 25/PA824 50/PZA 150 mg/kg oral, read-out: AUC0-24 in Quartet
[5] = 150 mg/kg, Group 1 quartet CFZ 20/BDQ 25/PA824 50/PZA 150 mg/kg oral, read-out: Cmax in Quartet
[6] = 150 mg/kg, Ref. regimen quartet INH 30/RIF 10/EMB 100/PZA 150 mg/kg oral, read-out: AUC0-24 in Quartet
[7] = 150 mg/kg, Ref. regimen quartet INH 30/RIF 10/EMB 100/PZA 150 mg/kg oral, read-out: Cmax in Quartet
[8] = 100 mg/kg, Ref. regimen triplet INH 30/RIF 10/EMB 100 mg/kg oral, read-out: AUC0-24 in Triplet
[9] = 100 mg/kg, Ref. regimen triplet INH 30/RIF 10/EMB 100 mg/kg oral, read-out: Cmax in Triplet

Compound: CC[C@H]1OC(=O)[C@H](C)[C@@H](O[C@H]2C[C@@](C)(OC)[C@@H](O)[C@H](C)O2)[C@H](C)[C@@H](O[C@@H]2O[C@H](C)C[C@H](N(C)C)[C@H]2O)[C@](C)(OC)C[C@@H](C)C(=O)[C@H](C)[C@@H](O)[C@]1(C)O [Clarithromycin]
- MIC ([1]; Mycobacterium tuberculosis): 9.63 µM (≈ 7.2 µg/mL)
- ΔLog10 CFU/ml at the MIC [2]: 0.75 Log10 CFU/ml

Compound: NC(=O)c1cnccn1 [Pyrazinamide]
- AUC(0-t) [3, 4]: 115 ± 6.5 µg·h/mL
- Cmax [3, 5]: 64000 ± 9800 ng/mL
- AUC(0-t) ([3]; 150 mg/kg, Group 2 quartet SQ109 25/BDQ 25/PA824 50/PZA 150 mg/kg oral, read-out: AUC0-24 in Quartet): 148 ± 2.1 µg·h/mL
- Cmax ([3]; 150 mg/kg, Group 2 quartet SQ109 25/BDQ 25/PA824 50/PZA 150 mg/kg oral, read-out: Cmax in Quartet): 64500 ± 3100 ng/mL
- AUC(0-t) ([3]; 150 mg/kg, Group 3 quartet BTZ043 37.5/SQ109 25/MXF 200/PZA 150 mg/kg oral, read-out: AUC0-24 in Quartet): 156 ± 13.2 µg·h/mL
- Cmax ([3]; 150 mg/kg, Group 3 quartet BTZ043 37.5/SQ109 25/MXF 200/PZA 150 mg/kg oral, read-out: Cmax in Quartet): 42000 ± 700 ng/mL
- AUC(0-t) ([3]; 150 mg/kg, Group 5 quartet EMB 100/BDQ 25/SQ109 25/PZA 150 mg/kg oral, read-out: AUC0-24 in Quartet): 144 ± 29.5 µg·h/mL
- Cmax ([3]; 150 mg/kg, Group 5 quartet EMB 100/BDQ 25/SQ109 25/PZA 150 mg/kg oral, read-out: Cmax in Quartet): 67200 ± 2500 ng/mL
- AUC(0-t) ([3]; 150 mg/kg, Group 6 quartet BTZ043 37.5/THI 800/SQ109 25/PZA 150 mg/kg oral, read-out: AUC0-24 in Quartet): 154 ± 23.8 µg·h/mL
- Cmax ([3]; 150 mg/kg, Group 6 quartet BTZ043 37.5/THI 800/SQ109 25/PZA 150 mg/kg oral, read-out: Cmax in Quartet): 40200 ± 13300 ng/mL
- AUC(0-t) ([3]; 150 mg/kg, Group 7 quartet PA824 50/BDQ 25/MXF 400/PZA 150 mg/kg oral, read-out: AUC0-24 in Quartet): 144 ± 16.9 µg·h/mL
- Cmax ([3]; 150 mg/kg, Group 7 quartet PA824 50/BDQ 25/MXF 400/PZA 150 mg/kg oral, read-out: Cmax in Quartet): 33200 ± 2300 ng/mL
- AUC(0-t) ([3]; 150 mg/kg, Group 8 quartet PA824 50/BDQ 25/EMB 100/PZA 150 mg/kg oral, read-out: AUC0-24 in Quartet): 127 ± 9 µg·h/mL
- Cmax ([3]; 150 mg/kg, Group 8 quartet PA824 50/BDQ 25/EMB 100/PZA 150 mg/kg oral, read-out: Cmax in Quartet): 69000 ± 12700 ng/mL
- AUC(0-t) ([3]; 150 mg/kg, Group 9 quartet EMB 100/SQ109 25/LZD 130/PZA 150 mg/kg oral, read-out: AUC0-24 in Quartet): 119 ± 7 µg·h/mL
- Cmax ([3]; 150 mg/kg, Group 9 quartet EMB 100/SQ109 25/LZD 130/PZA 150 mg/kg oral, read-out: Cmax in Quartet): 39500 ± 4400 ng/mL
- AUC(0-t) [3, 6]: 161 ± 18.8 µg·h/mL
- Cmax [3, 7]: 69700 ± 9700 ng/mL

Compound: N[C@@H]1CON=C1O [D-Cycloserine]
- MIC ([1]; Mycobacterium tuberculosis): 30.6 µM (≈ 3.12 µg/mL)
- ΔLog10 CFU/ml at the MIC [2]: 0.87 Log10 CFU/ml

Compound: NCC[C@H](O)C(=O)N[C@@H]1C[C@H](N)[C@@H](O[C@H]2O[C@H](CN)[C@@H](O)[C@H](O)[C@H]2O)[C@H](O)[C@H]1O[C@H]1O[C@H](CO)[C@@H](O)[C@H](N)[C@H]1O [Amikacin]
- MIC ([1]; Mycobacterium tuberculosis): 0.43 µM (≈ 0.252 µg/mL)
- ΔLog10 CFU/ml at the MIC [2]: −0.20 Log10 CFU/ml

Compound: CC(C)/N=c1\cc2n(-c3ccc(Cl)cc3)c3ccccc3nc-2cc1Nc1ccc(Cl)cc1 [Clofazimine]
- MIC ([1]; Mycobacterium tuberculosis): 0.26 µM (≈ 0.123 µg/mL)
- ΔLog10 CFU/ml at the MIC [2]: 0.72 Log10 CFU/ml
- AUC(0-t) ([3]; 50 mg/kg, Group 1 triplet CFZ 20/BDQ 25/PA824 50 mg/kg oral, read-out: AUC0-24 in Triplet): 42.8 ± 5.4 µg·h/mL
- Cmax ([3]; 50 mg/kg, Group 1 triplet CFZ 20/BDQ 25/PA824 50 mg/kg oral, read-out: Cmax in Triplet): 2300 ± 200 ng/mL
- AUC(0-t) [3, 4]: 48 ± 5.2 µg·h/mL
- Cmax [3, 5]: 2400 ± 200 ng/mL

Compound: Capreomycin
- MIC [1]: 5.91 µM
- ΔLog10 CFU/ml at the MIC [2]: −0.11 Log10 CFU/ml

Compound: [H]/N=C(/N)N[C@H]1[C@H](O)[C@@H](O)[C@H](O[C@@H]2O[C@@H](C)[C@](O)(C=O)[C@H]2O[C@@H]2O[C@@H](CO)[C@H](O)[C@@H](O)[C@@H]2NC)[C@@H](N/C(N)=N\[H])[C@@H]1O [Streptomycin]
- MIC ([1]; Mycobacterium tuberculosis): 0.68 µM (≈ 0.395 µg/mL)
- ΔLog10 CFU/ml at the MIC [2]: 0.36 Log10 CFU/ml

Compound: C[C@@H](O)[C@H]1C(=O)N2C(C(=O)O)=C(S[C@@H]3CN[C@H](C(=O)N(C)C)C3)[C@H](C)[C@H]12 [Meropenem]
- MIC ([1]; Mycobacterium tuberculosis): 8.15 µM (≈ 3.13 µg/mL)
- ΔLog10 CFU/ml at the MIC [2]: 0.57 Log10 CFU/ml

Compound: C[C@H]1COC2(CCN(c3nc(=O)c4cc(C(F)(F)F)cc([N+](=O)[O-])c4s3)CC2)O1 [BTZ043]
- MIC ([1]; Mycobacterium tuberculosis): 0.0009 µM (≈ 0.000388 µg/mL)
- ΔLog10 CFU/ml at the MIC [2]: 1.40 Log10 CFU/ml
- AUC(0-t) ([3]; 25 mg/kg, Group 6 triplet BTZ043 37.5/THI 800/SQ109 25 mg/kg oral, read-out: AUC0-24 in Triplet): 15 ± 6.2 µg·h/mL
- Cmax ([3]; 25 mg/kg, Group 6 triplet BTZ043 37.5/THI 800/SQ109 25 mg/kg oral, read-out: Cmax in Triplet): 2100 ± 400 ng/mL
- AUC(0-t) ([3]; 200 mg/kg, Group 3 triplet BTZ043 37.5/SQ109 25/MXF 200 mg/kg oral, read-out: AUC0-24 in Triplet): 11.1 ± 5 µg·h/mL
- Cmax ([3]; 200 mg/kg, Group 3 triplet BTZ043 37.5/SQ109 25/MXF 200 mg/kg oral, read-out: Cmax in Triplet): 2300 ± 900 ng/mL

Compound: NC[C@H]1O[C@H](O[C@H]2[C@H](O)[C@@H](O[C@H]3O[C@H](CO)[C@@H](O)[C@H](N)[C@H]3O)[C@H](N)C[C@@H]2N)[C@H](O)[C@@H](O)[C@@H]1O [Kanamycin]
- MIC [1]: 1.61 µM (≈ 0.78 µg/mL)
- ΔLog10 CFU/ml at the MIC [2]: 0.44 Log10 CFU/ml

Compound: CO[C@H]1/C=C/O[C@@]2(C)Oc3c(C)c(O)c4c(O)c(c(/C=N/N5CCN(C)CC5)c(O)c4c3C2=O)NC(=O)/C(C)=C\C=C\[C@H](C)[C@H](O)[C@@H](C)[C@@H](O)[C@@H](C)[C@H](OC(C)=O)[C@@H]1C [Rifampin]
- MIC ([1]; Mycobacterium tuberculosis): 0.009 µM (≈ 0.00741 µg/mL)
- ΔLog10 CFU/ml at the MIC [2]: 1.24 Log10 CFU/ml
- AUC(0-t) [3, 8]: 25.4 ± 7.3 µg·h/mL
- Cmax [3, 9]: 4900 ± 1300 ng/mL
- AUC(0-t) [3, 6]: 22.2 ± 8.6 µg·h/mL
- Cmax [3, 7]: 5500 ± 3000 ng/mL

Compound: NNC(=O)c1ccncc1 [Isoniazid]
- MIC ([1]; Mycobacterium tuberculosis): 0.22 µM (≈ 0.0302 µg/mL)
- ΔLog10 CFU/ml at the MIC [2]: 1.02 Log10 CFU/ml
- AUC(0-t) [3, 8]: 19.8 ± 4.7 µg·h/mL
- Cmax [3, 9]: 10800 ± 2900 ng/mL
- AUC(0-t) [3, 6]: 12 ± 3.4 µg·h/mL
- Cmax [3, 7]: 7000 ± 3200 ng/mL
